The text below walks through data of patent publication US5521160A, “Sulfuric acid esters of sugar alcohols” (Hoffmann-La Roche Inc., priority 1994, dated 1996).

Assay [1] has as its system rat smooth muscle cells. The assay can be described thus: Antiproliferative activity (growth inhibition of rat smooth muscle cells, relative to heparin). The assay is classed as cell-based. As to conditions: 100 μg/ml, 48 hours, relative to heparin 100 μg/ml in same experiment.
Description: The antiproliferative activity of a substance is expressed as the ri value which is a comparative value to the corresponding activity of heparin and which was determined in cell cultures as follows: rat smooth muscle cells were applied to cell culture plates in a density of 8×10^3 cells/well (medium: DMEM with 10% FCS. Cultivation at 37° C. and 5% CO2). After 4 hours the number of adhered cells was determined and the compounds to be tested (100 μg/ml, dissolved in H2 O) were added. The controls were a) cells to which test compound was not added and b) heparin (100 μg/ml). Subsequently, the cells were incubated for 48 hours and thereafter the cell count was determined once more.
The inhibition i of the cell growth, i.e. the percent reduction in the growth rate of the cells compared to the control, was calculated from these values: [formula] the growth rate μ being calculated as [formula] in which Z is the number of cells.
Finally, ri --the relative inhibitory activity--which expresses the activity of a substance (at 100 μg/ml) in comparison to the activity of heparin in the same concentration in the same experiment, was calculated: [formula]
Assay [2] concerns the target T1, thrombin (Homo sapiens, UniProt P00734).
T1 construct: purchased Roche, Basle (Thrombin Reagent)
The assay can be described thus: biochemical. It counts as biochemical. As to conditions: read-out: Anticoagulative Activity IC50 Thrombin.
Description: (§1) The blood coagulation-inhibiting activity was determined as follows:
Inhibition of Thrombin or Factor Xa in the Chromogenic Substrate Assay (Teien. et al., Thrombosis Research 10, 399-410 (1977)): The determination was effected in a Cobas-Bio centrifugal automatic spectrophotometer. The buffer solution used consisted of 50 mM Tris buffer, 180 mM NaCl, 7.5 mM EDTA Na2, 1% PEG 6000 and 0.02% Tween 80, pH 8.4. The test solution consisted of 50 μl of buffer, 30 μl of antithrombin III (1 U/ml, Kabi Diagnostica) and 20 μl of plasma which contained various concentrations of test compounds. 30 μl of sample solution and 20 μl of water with 180 μl of thrombin (1 U/ml, Thrombin Reagent Roche Basle) were added to the test cuvette in the automatic analyzer. After incubation at 37° C. for 240 seconds, 60 μl of S-2238 (H-D-Phe-Pip-Arg-NH.pNA, Kabi Diagnostica, Mondal, Sweden, 0.75 mM in water) and 20 μl of water were added. The liberation of pNA (p-nitroaniline) was followed during 60 seconds at 405 nm in 10 second intervals in comparison to water as the blank.

The target in assay [3] is T2, Factor Xa (Bos taurus, UniProt P00743).
T2 sequence (P00743 41-180 limits assumed): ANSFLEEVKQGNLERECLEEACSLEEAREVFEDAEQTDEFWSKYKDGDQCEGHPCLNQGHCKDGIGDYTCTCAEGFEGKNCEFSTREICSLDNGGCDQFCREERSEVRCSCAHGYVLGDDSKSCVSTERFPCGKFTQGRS
The assay can be described thus: Inhibition of Factor Xa in the chromogenic substrate assay (blood coagulation inhibition). The assay is classed as biochemical. The settings on record: chromogenic substrate S-2222, antithrombin III, plasma; read-out: Anticoagulative Activity IC50 Factor Xa.
Description: as §1
Inhibition of Thrombin or Factor Xa in the Chromogenic Substrate Assay (Teien. et al., Thrombosis Research 10, 399-410 (1977)): The determination was effected in a Cobas-Bio centrifugal automatic spectrophotometer. The buffer solution used consisted of 50 mM Tris buffer, 180 mM NaCl, 7.5 mM EDTA Na2, 1% PEG 6000 and 0.02% Tween 80, pH 8.4. The test solution consisted of 50 μl of buffer, 30 μl of antithrombin III (1 U/ml, Kabi Diagnostica) and 20 μl of plasma which contained various concentrations of test compounds.
The inhibition of Factor Xa was measured in the same manner using a solution of Factor Xa (2.8 nkat/ml) and 2 mM S-2222 (Bz-CO-Ile-Glu-Arg-NH.pNA, Kabi Diagnostica) in water in place of thrombin or S-2238.

The mark [4] stands for this setting: chromogenic substrate S-2238, antithrombin III, plasma, pH 8.4, 37° C.

Structures can show the parent of a compound that is named as a salt. Where two headings read alike, the source gives them in different places.

By IC50 is commonly meant the concentration at which inhibition is half-maximal.

As for `O=C(NC[C@H](OS(=O)(=O)O)[C@@H](OS(=O)(=O)O)[C@H](OS(=O)(=O)O)[C@@H](COS(=O)(=O)O)OS(=O)(=O)O)c1ccc2cc(C(=O)NC[C@H](OS(=O)(=O)O)[C@@H](OS(=O)(=O)O)[C@H](OS(=O)(=O)O)[C@@H](COS(=O)(=O)O)OS(=O)(=O)O)ccc2c1` [Example 1, naphthalene-2,6-dicarboxylic acid bis-(2,3,4,5,6-penta-O-sulfo-D-glucit-1-ylamide) decasodium salt], in assay [1], the “Antiproliferative Activity ri (relative inhibitory activity compared with heparin)” value turned out to be 0.6. The 50% inhibitory concentration (IC50) in assay [2] (pH 8.4) and in assay [3] was above 745 µM in each case.
Turning to `O=C(NC[C@H](OS(=O)(=O)O)[C@@H](OS(=O)(=O)O)[C@H](OS(=O)(=O)O)[C@@H](COS(=O)(=O)O)OS(=O)(=O)O)c1ccc(/C=C\c2ccc(C(=O)NC[C@H](OS(=O)(=O)O)[C@@H](OS(=O)(=O)O)[C@H](OS(=O)(=O)O)[C@@H](COS(=O)(=O)O)OS(=O)(=O)O)cc2)cc1` [Example 3, (Z)-stilbene-4,4'-dicarboxylic acid bis-(2,3,4,5,6-penta-O-sulfo-D-glucit-1-ylamide) decasodium salt], in assay [1], the “Antiproliferative Activity ri (relative inhibitory activity compared with heparin)” value came out at 1.5. In addition, the IC50 in assay [2] (setting [4]) and in assay [3] was above 717 µM each time.
Turning to `O=C(NC[C@H](OS(=O)(=O)O)[C@@H](OS(=O)(=O)O)[C@H](OS(=O)(=O)O)[C@@H](COS(=O)(=O)O)OS(=O)(=O)O)c1ccc(S(=O)(=O)c2ccc(C(=O)NC[C@H](OS(=O)(=O)O)[C@@H](OS(=O)(=O)O)[C@H](OS(=O)(=O)O)[C@@H](COS(=O)(=O)O)OS(=O)(=O)O)cc2)cc1` [Example 4, 4,4'-sulfonyl-dibenzoic acid bis-(2,3,4,5,6-penta-O-sulfo-D-glucit-1-ylamide) decasodium salt], the “Antiproliferative Activity ri (relative inhibitory activity compared with heparin)” value in assay [1] worked out at 0.3. Moreover, the IC50 in assay [2] (setting [4]) and in assay [3] was above 698 µM in each case.
Consider `CC(/C=C/C=C(\C)C(=O)NC[C@H](OS(=O)(=O)O)[C@@H](OS(=O)(=O)O)[C@H](OS(=O)(=O)O)[C@@H](COS(=O)(=O)O)OS(=O)(=O)O)=C\C=C\C=C(C)\C=C\C=C(/C)C(=O)NC[C@H](OS(=O)(=O)O)[C@@H](OS(=O)(=O)O)[C@H](OS(=O)(=O)O)[C@@H](COS(=O)(=O)O)OS(=O)(=O)O` [Example 6, (2E,4E,6E,8E,10E,12E,14E)-2,6,11,15-tetramethyl-hexadeca-2,4,6,8,10,12,14-heptaenedicarboxylic acid bis-(2,3,4,5,6-penta-O-sulfo-D-glucit-1-ylamide) decasodium salt], for which, in assay [1], the “Antiproliferative Activity ri (relative inhibitory activity compared with heparin)” value came to 1.5. Further, the half-maximal inhibitory concentration (IC50) in assay [2] (setting [4]) and in assay [3] was above 687 µM each time.
As to `O=C(NC[C@H](OS(=O)(=O)O)[C@@H](OS(=O)(=O)O)[C@H](OS(=O)(=O)O)[C@@H](COS(=O)(=O)O)OS(=O)(=O)O)c1ccc(CCc2ccc(C(=O)NC[C@H](OS(=O)(=O)O)[C@@H](OS(=O)(=O)O)[C@H](OS(=O)(=O)O)[C@@H](COS(=O)(=O)O)OS(=O)(=O)O)cc2)cc1` [Example 10, 4,4'-ethylene-dibenzoic acid bis-(2,3,4,5,6-penta-O-sulfo-D-glucit-1-ylamide) decasodium salt], the “Antiproliferative Activity ri (relative inhibitory activity compared with heparin)” value in assay [1] was determined as 1.5. Further, the IC50 in assay [2] (setting [4]) and in assay [3] was above 716 µM each time.
In the case of `O=S(=O)(O)OC[C@@H](OS(=O)(=O)O)[C@@H](OS(=O)(=O)O)[C@H](OS(=O)(=O)O)[C@H](CNS(=O)(=O)c1cccc2c(S(=O)(=O)NC[C@H](OS(=O)(=O)O)[C@@H](OS(=O)(=O)O)[C@H](OS(=O)(=O)O)[C@@H](COS(=O)(=O)O)OS(=O)(=O)O)cccc12)OS(=O)(=O)O` [Example 11, naphthalene-1,5-disulfonic acid bis-(2,3,4,5,6-penta-O-sulfo-D-glucit-1-ylamide) decasodium salt], the “Antiproliferative Activity ri (relative inhibitory activity compared with heparin)” value in assay [1] is recorded as 1.0. Further, the IC50 in assay [2] (setting [4]) and in assay [3] was above 707 µM each time.
As for `O=C(Nc1ccc(OC[C@@H](OS(=O)(=O)O)[C@H](OS(=O)(=O)O)[C@@H](COS(=O)(=O)O)OS(=O)(=O)O)cc1)c1cccc(C(=O)Nc2ccc(OC[C@@H](OS(=O)(=O)O)[C@H](OS(=O)(=O)O)[C@@H](COS(=O)(=O)O)OS(=O)(=O)O)cc2)c1` [Example 12, N,N'-bis-[4-(2,3,4,5-tetra-O-sulfo-D-arabinit-1-yloxy)-phenyl]-isophthalamide octasodium salt], the “Antiproliferative Activity ri (relative inhibitory activity compared with heparin)” value in assay [1] was found to be 0.9. Also, the IC50 in assay [2] (setting [4]) and in assay [3] was above 795 µM each time.
`O=C(NC[C@H](OS(=O)(=O)O)[C@@H](OS(=O)(=O)O)[C@H](OS(=O)(=O)O)[C@@H](COS(=O)(=O)O)OS(=O)(=O)O)c1cccc(C(=O)NC[C@H](OS(=O)(=O)O)[C@@H](OS(=O)(=O)O)[C@H](OS(=O)(=O)O)[C@@H](COS(=O)(=O)O)OS(=O)(=O)O)c1` [Example 14, N,N'-bis-(2,3,4,5,6-penta-O-sulfo-D-glucit-1-yl)-isophthalamide decasodium salt]: the “Antiproliferative Activity ri (relative inhibitory activity compared with heparin)” value in assay [1] came out at 0.6. For the same molecule, the IC50 in assay [2] (setting [4]) and in assay [3] was above 773 µM each time.
With `O=C(NC[C@H](OS(=O)(=O)O)[C@@H](OS(=O)(=O)O)[C@H](OS(=O)(=O)O)[C@@H](COS(=O)(=O)O)OS(=O)(=O)O)c1ccc(Cc2ccc(C(=O)NC[C@H](OS(=O)(=O)O)[C@@H](OS(=O)(=O)O)[C@H](OS(=O)(=O)O)[C@@H](COS(=O)(=O)O)OS(=O)(=O)O)cc2)cc1` [Example 16, 4,4'-methylene-dibenzoic acid bis-(2,3,4,5,6-penta-O-sulfo-D-glucit-1-ylamide) decasodium salt], the “Antiproliferative Activity ri (relative inhibitory activity compared with heparin)” value in assay [1] is given as 0.7. Further, the 50% inhibitory concentration (IC50) in assay [2] (setting [4]) and in assay [3] was above 723 µM throughout.
For the molecule `Cc1c(NC(=O)NC[C@H](OS(=O)(=O)O)[C@@H](OS(=O)(=O)O)[C@H](OS(=O)(=O)O)[C@@H](COS(=O)(=O)O)OS(=O)(=O)O)cccc1NC(=O)NC[C@H](OS(=O)(=O)O)[C@@H](OS(=O)(=O)O)[C@H](OS(=O)(=O)O)[C@@H](COS(=O)(=O)O)OS(=O)(=O)O` [Example 26, 3,3'-bis-(2,3,4,5,6-penta-O-sulfo-D-glucit-1-yl)-1,1'-(toluene-2,6-diyl)-diurea decasodium salt], the “Antiproliferative Activity ri (relative inhibitory activity compared with heparin)” value in assay [1] is reported as 1.5. The IC50 in assay [2] (setting [4]) and in assay [3] was above 748 µM in each case.
`O=C(NC[C@H](OS(=O)(=O)O)[C@@H](OS(=O)(=O)O)[C@H](OS(=O)(=O)O)[C@@H](COS(=O)(=O)O)OS(=O)(=O)O)Nc1ccc(NC(=O)c2ccc(C(=O)Nc3ccc(NC(=O)NC[C@H](OS(=O)(=O)O)[C@@H](OS(=O)(=O)O)[C@H](OS(=O)(=O)O)[C@@H](COS(=O)(=O)O)OS(=O)(=O)O)cc3)cc2)cc1` [Example 33, N,N'-bis-[4-[3-(2,3,4,5,6-penta-O-sulfo-D-glucit-1-yl)-ureido]-phenyl]-terephthalamide decasodium salt]: in assay [1], the “Antiproliferative Activity ri (relative inhibitory activity compared with heparin)” value is 0.8. The IC50 in assay [2] (pH 8.4) and in assay [3] was above 640 µM in each case.
